The target of test [1] is T1, Genome polyprotein (dengue virus type 2, UniProt P29990). The class given is functional, Thailand/16681/1984.
The target of test [2] is T1, Genome polyprotein. Type of test: functional, Thailand/16681/1984. The source holds these as a separate data set.

Molecules are shown by their SMILES. pIC50: −log10 of the molar value. Several values for one entry are separate records, joined by “and”; a condition that tells them apart may be missing. Equal values may be shown once.

As usually defined, the pIC50 is the IC50 on a negative log10 scale, so that one unit is a factor of ten.

T1 sequence (P29990 1346-1475 limits assumed): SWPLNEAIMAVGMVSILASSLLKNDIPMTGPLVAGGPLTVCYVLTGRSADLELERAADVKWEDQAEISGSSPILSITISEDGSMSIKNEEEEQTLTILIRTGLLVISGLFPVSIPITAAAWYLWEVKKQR
T1 sequence (P29990 1476-2093 limits assumed): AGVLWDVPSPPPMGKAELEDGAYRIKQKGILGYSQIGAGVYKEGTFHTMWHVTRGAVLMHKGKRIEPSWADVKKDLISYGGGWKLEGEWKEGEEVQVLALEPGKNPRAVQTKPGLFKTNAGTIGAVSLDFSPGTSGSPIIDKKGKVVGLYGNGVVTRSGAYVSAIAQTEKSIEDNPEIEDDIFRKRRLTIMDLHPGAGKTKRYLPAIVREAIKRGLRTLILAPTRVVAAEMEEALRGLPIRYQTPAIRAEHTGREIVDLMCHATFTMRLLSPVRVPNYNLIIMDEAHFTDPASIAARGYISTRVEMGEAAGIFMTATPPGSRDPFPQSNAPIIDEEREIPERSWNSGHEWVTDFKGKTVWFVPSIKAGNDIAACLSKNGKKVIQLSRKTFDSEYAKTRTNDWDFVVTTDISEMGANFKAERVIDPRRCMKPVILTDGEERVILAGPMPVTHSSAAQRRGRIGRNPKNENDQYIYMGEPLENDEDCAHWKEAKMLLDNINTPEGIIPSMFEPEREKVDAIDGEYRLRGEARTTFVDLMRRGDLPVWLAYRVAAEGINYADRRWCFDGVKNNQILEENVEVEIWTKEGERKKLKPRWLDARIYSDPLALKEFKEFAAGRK

Consider `NCc1cccc(NC(=O)c2ccnc3[nH]c(C4CCOCC4)nc23)c1`, for which the pIC50 on Genome polyprotein [1] and at Genome polyprotein [2] was < 4.00 in each case.
On to `COCc1cc(NC(=O)OCc2ccccc2)cc(C(=O)Nc2cccc(CN)c2)c1`, for which the pIC50 against Genome polyprotein [1] and against Genome polyprotein [2] was < 4.00 throughout.
In the case of `NC(=O)COc1ccc(Br)cc1[C@H](Nc1ccc2c(c1)CNC2)C(=O)NCC(F)F`, the pIC50 against Genome polyprotein [1] and against Genome polyprotein [2] was < 4.00 in each case.
`O=C(Nc1ccc2c(c1)CNC2)c1ccc2sncc2c1`: the pIC50 against Genome polyprotein [1] and against Genome polyprotein [2] was < 4.00 in each case.
`N#C[C@H](Nc1cccc(-c2nn[nH]n2)c1)c1cc(Cl)cc(NC(=O)OCc2ccccc2)c1`: the negative logarithm of the IC50 (pIC50) against Genome polyprotein [1] was 4.98 and 4.86 and 5.01; on Genome polyprotein [2], 5.06 and 5.18 and 4.94 and 5.08.
As for `O=C(Cn1ccnc(N2CC[C@H](CO)C2)c1=O)NCc1cc[nH]n1`, the pIC50 at Genome polyprotein [1] and on Genome polyprotein [2] was < 4.00 in each case.
Take `CCn1c(=O)c(N2CC[C@H](CO)C2)nc2cc(C(=O)NS(C)(=O)=O)ccc21`: the pIC50 against Genome polyprotein [1] and against Genome polyprotein [2] was < 4.00 each time.
Turning to `O=C(Nc1ccc2c(c1)CNC2)c1ccc2scnc2c1`, the pIC50 at Genome polyprotein [1] is 4.63 and 4.98; against Genome polyprotein [2], 4.38 and 4.35.
As to `NCc1cccc(NC(=O)c2cc(Cl)cc3c2cnn3CC2CC2)c1`, the pIC50 against Genome polyprotein [1] and on Genome polyprotein [2] was < 4.00 throughout.
Regarding `C=CC[C@]1(NC(=O)c2cc(Cl)cc(NC(=O)OCc3ccccc3)c2)CCNC1`, the pIC50 against Genome polyprotein [1] and against Genome polyprotein [2] was < 4.00 each time.
`COc1ccc(-c2cccc([C@H](NC(=O)OCc3ccccc3)C(=O)Nc3cccc(CN)c3)c2)c(C#N)c1`: the pIC50 at Genome polyprotein [1] was 4.25; on Genome polyprotein [2], < 4.00.
Taken in the same sequence, the figures for `O=C1Cc2c(cccc2C(=O)NC[C@H]2CCCN(c3nccs3)C2)N1` were < 4.00 and < 4.00.
As for `CC(C)CNC(=O)[C@H](Nc1cccc(-c2nn[nH]n2)c1)c1cc(Cl)cc(NC(=O)OCc2ccccc2)c1`, the pIC50 against Genome polyprotein [1] is 4.90; against Genome polyprotein [2], 5.00 and 5.04.
Regarding `NCc1cccc(NC(=O)[C@H](NC(=O)OCc2ccccc2)c2cccc(-c3ccccn3)c2)c1`, the pIC50 on Genome polyprotein [1] and against Genome polyprotein [2] was < 4.00 in each case.
Turning to `CN(C)C(=O)c1cc(CN)cc([C@@H]2C[C@H]2c2cc(Cl)cc(NC(=O)OCc3ccccc3)c2)c1`, the results for the pIC50 against Genome polyprotein [1] and against Genome polyprotein [2] were 4.50 and < 4.00, respectively.
The like results for `CNC(=O)[C@H](Nc1cccc([C@H]2CCOC2)c1)c1cc(C2CC2)n(C)n1` were, in that order, < 4.00 and < 4.00.
As for `O=C(Nc1cc(-c2cccnc2)ccn1)c1cnn2c1CCCC2`, the pIC50 against Genome polyprotein [1] was 4.74 and 4.86; at Genome polyprotein [2], 4.78 and 4.71.
`O=C(Nc1cc(Cl)cc(C(=O)Nc2ccc3c(c2)OCCNC3)c1)OCc1ccccc1`: the pIC50 on Genome polyprotein [1] and on Genome polyprotein [2] was < 4.00 in each case.
For `Cc1cc(-c2ccc3[nH]c(C(=O)O)cc3c2)c2cc[nH]c(=O)c2c1`, the pIC50 against Genome polyprotein [1] and against Genome polyprotein [2] was < 4.00 each time.
Take `COCCOc1ccc(Cl)cc1C(=O)Nc1ccc2c(c1)CNC2`: the pIC50 at Genome polyprotein [1] and on Genome polyprotein [2] was < 4.00 each time.
As for `O=C(Nc1ccc2c(c1)CNC2)c1cc(C(F)(F)F)c2cn[nH]c2n1`, the pIC50 at Genome polyprotein [1] and on Genome polyprotein [2] was < 4.00 each time.
For `NCc1ccccc1Oc1ccc(S(=O)(=O)Nc2ccc(Cl)cc2C(=O)NCC(F)(F)F)cc1`, the pIC50 against Genome polyprotein [1] and on Genome polyprotein [2] was < 4.00 in each case.
With `NCCCc1cccc(NC(=O)c2cc(Cl)cc(NC(=O)OCc3ccccc3)c2)n1`, the pIC50 is 4.21 against Genome polyprotein [1] and < 4.00 against Genome polyprotein [2].
`NCc1ccc([C@H]2C[C@@H]2c2cc(Cl)cc(NC(=O)OCc3ccccc3)c2)cc1`: the pIC50 was 5.01 and 4.96 at Genome polyprotein [1]; < 4.00 on Genome polyprotein [2].
Take `NCc1cc(CCc2cc(Cl)cc(NC(=O)OCc3ccccc3)c2)cc(C(=O)O)c1`: the pIC50 on Genome polyprotein [1] and against Genome polyprotein [2] was < 4.00 throughout.
As for `CNCc1cc(Cl)cc(C(=O)Nc2cccc(CN)c2)c1`, the pIC50 against Genome polyprotein [1] and against Genome polyprotein [2] was < 4.00 in each case.
On to `O=C(Nc1ccc2c(c1)CNC2)c1cc(Cl)cc2c1cnn2C1CCC1`, for which the pIC50 against Genome polyprotein [1] and against Genome polyprotein [2] was < 4.00 in each case.
In the case of `O=C(Nc1cc(Cl)cc(C(=O)Nc2cccc([C@H]3CCCN3)c2)c1)OCc1ccccc1`, the pIC50 against Genome polyprotein [1] is 4.02; on Genome polyprotein [2] it was < 4.00.
`COCCCN1Cc2ccc(NC(=O)c3cc(Cl)cc4[nH]ncc34)cc2C1`: the pIC50 at Genome polyprotein [1] and on Genome polyprotein [2] was < 4.00 throughout.
With `CCNC(=O)Nc1cc(Cl)cc(C(=O)Nc2ccc([C@H](CC)Cc3nnn[nH]3)cc2)c1`, the pIC50 at Genome polyprotein [1] and against Genome polyprotein [2] was < 4.00 in each case.
For `O=C(Nc1ccc2c(c1)CNC2)c1n[nH]c2ccc(F)cc12`, the figures for the pIC50 on Genome polyprotein [1] and against Genome polyprotein [2] were < 4.00 and 4.10, respectively.
The like results for `Cc1c(C(=O)Nc2cc(-c3cccnc3)ccn2)cc(C(C)(C)C)n1C` were, in that order, < 4.00 and < 4.00.
Taken in the same sequence, the figures for `C[C@H]1C[C@H]1c1cc(C(=O)Nc2cc(-c3cccnc3)ccn2)no1` were < 4.00 and < 4.00.
Taken in the same sequence, the figures for `NCc1cccc(NC(=O)c2cc(C(F)(F)F)nn2CC2CCC2)c1` were < 4.00 and < 4.00.
In the case of `COC[C@]1(c2nc3c(C(=O)Nc4ccc5c(c4)CNC5)cc(F)cc3[nH]2)CCOC1`, the negative logarithm of the IC50 (pIC50) against Genome polyprotein [1] and on Genome polyprotein [2] was < 4.00 throughout.
For the compound `N#Cc1c[nH]c2ccc(C(=O)Nc3ccc4c(c3)CNC4)cc12`, the pIC50 against Genome polyprotein [1] and on Genome polyprotein [2] was < 4.00 throughout.
Consider `NCc1cc(CC(=O)O)cc([C@H]2C[C@@H]2c2cc(Cl)cc(NC(=O)OCc3ccccc3)c2)c1`, for which the pIC50 against Genome polyprotein [1] and against Genome polyprotein [2] was < 4.00 each time.
For `CNC(=O)[C@H](Nc1ccc2c(c1)CNC2)c1cc(Cl)cc2[nH]c(-c3ccccc3)nc12`, the pIC50 against Genome polyprotein [1] was 4.30; on Genome polyprotein [2] it was 4.67 and 4.63.
Regarding `CC[C@H](Cc1nnn[nH]1)c1ccc(NC(=O)c2cc(Cl)cc(SC)c2)cc1`, the pIC50 against Genome polyprotein [1] is 4.17; against Genome polyprotein [2], 4.39.
The like results for `NCCc1ccc(NC(=O)c2cc(Cl)cc(CN)c2)cc1` were, in that order, < 4.00 and < 4.00.
The like results for `O=C(Nc1cc(Cl)cc(-c2cc(C(=O)O)n(-c3ccc(F)cc3)n2)c1)OCc1ccccc1` were, in that order, 4.76 and 4.98.
Taken in the same sequence, the figures for `NC[C@H]1C[C@](F)(CNC(=O)c2cc(Cl)cc(NC(=O)OCc3ccccc3)c2)C1` were < 4.00 and < 4.00.
With `N#Cc1ccc2[nH]cc(Cc3ccc(-c4nnn[nH]4)cc3)c2c1`, the values for the pIC50 at Genome polyprotein [1] and against Genome polyprotein [2] were < 4.00 and 4.08, respectively.
Taken in the same sequence, the figures for `Fc1cc(CNc2ccc3c(c2)CNC3)c2cc[nH]c2c1` were < 4.00 and < 4.00.
The like results for `CCc1cnccc1-c1nc2c(C(=O)Nc3ccc4c(c3)CNC4)cc(Cl)cc2[nH]1` were, in that order, < 4.00 and < 4.00.
Taken in the same sequence, the figures for `C[C@H]1CCCCN1C(=O)Cn1ccnc(N2CC[C@@H](CO)C2)c1=O` were < 4.00 and < 4.00.
As to `NCc1cc(NS(=O)(=O)c2ccc(Oc3ccccc3Cl)cc2)ccc1Cl`, the negative logarithm of the IC50 (pIC50) against Genome polyprotein [1] and against Genome polyprotein [2] was < 4.00 in each case.
As to `O=C(Nc1ccc2c(c1)CNC2)c1cccc2c1OCCN2`, the pIC50 at Genome polyprotein [1] and against Genome polyprotein [2] was < 4.00 in each case.
For `O=C1Cc2c(cccc2C(=O)Nc2ccc3c(n2)CNC3)N1`, the pIC50 against Genome polyprotein [1] and against Genome polyprotein [2] was < 4.00 throughout.
For `CN(C)C(=O)Nc1cccc([C@@H]2C[C@H]2c2cc(Cl)cc(NC(=O)OCc3ccccc3)c2)c1`, the pIC50 on Genome polyprotein [1] and at Genome polyprotein [2] was < 4.00 throughout.
For `Cc1oc(C2CC2)nc1C(=O)Nc1cc(-c2cccnc2)ccn1`, the pIC50 against Genome polyprotein [1] and against Genome polyprotein [2] was < 4.00 each time.
Consider `CC(C)c1nnc(-c2nc3c(C(=O)Nc4ccc5c(c4)CNC5)cc(F)cc3[nH]2)s1`, for which the pIC50 against Genome polyprotein [1] is 4.45 and 4.46; against Genome polyprotein [2], 4.19 and 4.17.
On to `NCc1cccc(NS(=O)(=O)c2cc(Cl)cc(NC(=O)OCc3ccccc3)c2)c1`, for which the pIC50 against Genome polyprotein [1] and on Genome polyprotein [2] was < 4.00 in each case.
Take `O=C1Cc2c(cccc2C(=O)N[C@H]2C[C@H](OC(F)F)C2)N1`: the negative-log IC50 (pIC50) at Genome polyprotein [1] and at Genome polyprotein [2] was < 4.00 in each case.
On to `Cn1cc(CNC(=O)[C@H](Nc2ccc3c(c2)CNC3)c2cc(Cl)cc(C3CC3)c2)cn1`, for which the pIC50 against Genome polyprotein [1] and against Genome polyprotein [2] was < 4.00 each time.
As to `O=C(Nc1cc(-c2cccnc2)ccn1)c1cc2n(n1)CCC2`, the pIC50 against Genome polyprotein [1] and at Genome polyprotein [2] was < 4.00 in each case.
As for `C=C(C)c1ccc(Cl)cc1[C@H](Nc1ccc2c(c1)CNC2)C(=O)NCC(F)F`, the pIC50 on Genome polyprotein [1] and against Genome polyprotein [2] was < 4.00 throughout.
As for `N#C[C@H](Nc1cncc(-c2nn[nH]n2)c1)c1cc(Cl)cc(NC(=O)OCc2ccccc2)c1`, the pIC50 is 4.73 on Genome polyprotein [1]; 4.96 and 4.97 on Genome polyprotein [2].
As for `NCc1cccc(NC(=O)[C@@H]2CCC[C@H](OC(F)(F)F)C2)c1`, the pIC50 at Genome polyprotein [1] and against Genome polyprotein [2] was < 4.00 in each case.
For the compound `CC(C)N1CCC([C@H](NC(=O)OCc2ccccc2)C(=O)Nc2cccc(CN)c2)CC1`, the pIC50 against Genome polyprotein [1] and at Genome polyprotein [2] was < 4.00 throughout.
Take `CNC(=O)[C@H](Nc1ccc2c(c1)C(=O)OC2)c1cc(Cl)cc2[nH]ncc12`: the pIC50 on Genome polyprotein [1] and against Genome polyprotein [2] was < 4.00 throughout.
Consider `CCCCSc1ccc(Cl)cc1C(=O)Nc1cccc(CN)c1`, for which the pIC50 against Genome polyprotein [1] and against Genome polyprotein [2] was < 4.00 in each case.
Consider `O=C(Nc1ccc2c(c1)CNC2)c1cc(Br)cc2[nH]c(=O)[nH]c12`, for which the results for the pIC50 at Genome polyprotein [1] and against Genome polyprotein [2] were 4.17 and 4.26, respectively.
For the compound `CC(C)c1ccc(Cl)cc1C(=O)Nc1ccc2c(c1)CNC2`, the pIC50 on Genome polyprotein [1] and on Genome polyprotein [2] was < 4.00 throughout.
With `NCc1cc(-c2ccncc2)cc([C@@H]2C[C@H]2c2cc(Cl)cc(NC(=O)OCc3ccccc3)c2)c1`, the pIC50 on Genome polyprotein [1] and against Genome polyprotein [2] was < 4.00 in each case.
Turning to `O=C(Nc1ccc(-n2nn[nH]c2=O)cc1)c1cc(Cl)cc(C2CC2)c1`, the pIC50 at Genome polyprotein [1] is < 4.00; on Genome polyprotein [2], 4.21.
As to `O=C(O)COc1cccc(NC(=O)c2cc(Cl)cc(NC(=O)OCc3ccccc3)c2)c1`, the pIC50 against Genome polyprotein [1] was 4.34; against Genome polyprotein [2], 4.55 and 4.65.
